Assay results as given in patent US20240398823A1, “DUAL INHIBITOR OF HISTONE DEACETYLASE 6 AND HEAT SHOCK PROTEIN 90” (TAIPEI MEDICAL UNIVERSITY, priority 2021, published 2024).

Assays:
HDAC3 = biological target: T1, HDAC3 (Homo sapiens, UniProt O15379); test: HDAC enzymes inhibition assay (Reaction Biology), HDAC3; type: biochemical; conditions: 10-dose, 3-fold dilution from 10 μM, single experiment
T1 construct: Reaction Biology Corporation (ran the assay as a service)

HSP90β = biological target: T2, HSP90β (Homo sapiens, UniProt P08238); test: HSP90 inhibition assay, FITC-geldanamycin competition fluorescence polarization, HSP90β; type: binding; conditions: FITC-GM competition
T2 construct: Reaction Biology Corporation (ran the assay as a service)

HDAC1 = biological target: T3, HDAC1 (Homo sapiens, UniProt Q13547); test: HDAC enzymes inhibition assay (Reaction Biology), HDAC1; type: biochemical; conditions: 10-dose, 3-fold dilution from 10 μM, single experiment
T3 construct: Reaction Biology Corporation (ran the assay as a service)

HSP90α = biological target: T4, HSP90α (Homo sapiens, UniProt P07900); test: HSP90 inhibition assay, FITC-geldanamycin competition fluorescence polarization, HSP90α; type: binding; conditions: FITC-GM competition
T4 construct: Reaction Biology Corporation (ran the assay as a service)

HDAC6 = biological target: T5, HDAC6 (Homo sapiens, UniProt Q9UBN7); test: HDAC enzymes inhibition assay (Reaction Biology), HDAC6; type: biochemical; conditions: 10-dose, 3-fold dilution from 10 μM, single experiment
T5 construct: Reaction Biology Corporation (ran the assay as a service)
T5 sequence (Q9UBN7 1-1215): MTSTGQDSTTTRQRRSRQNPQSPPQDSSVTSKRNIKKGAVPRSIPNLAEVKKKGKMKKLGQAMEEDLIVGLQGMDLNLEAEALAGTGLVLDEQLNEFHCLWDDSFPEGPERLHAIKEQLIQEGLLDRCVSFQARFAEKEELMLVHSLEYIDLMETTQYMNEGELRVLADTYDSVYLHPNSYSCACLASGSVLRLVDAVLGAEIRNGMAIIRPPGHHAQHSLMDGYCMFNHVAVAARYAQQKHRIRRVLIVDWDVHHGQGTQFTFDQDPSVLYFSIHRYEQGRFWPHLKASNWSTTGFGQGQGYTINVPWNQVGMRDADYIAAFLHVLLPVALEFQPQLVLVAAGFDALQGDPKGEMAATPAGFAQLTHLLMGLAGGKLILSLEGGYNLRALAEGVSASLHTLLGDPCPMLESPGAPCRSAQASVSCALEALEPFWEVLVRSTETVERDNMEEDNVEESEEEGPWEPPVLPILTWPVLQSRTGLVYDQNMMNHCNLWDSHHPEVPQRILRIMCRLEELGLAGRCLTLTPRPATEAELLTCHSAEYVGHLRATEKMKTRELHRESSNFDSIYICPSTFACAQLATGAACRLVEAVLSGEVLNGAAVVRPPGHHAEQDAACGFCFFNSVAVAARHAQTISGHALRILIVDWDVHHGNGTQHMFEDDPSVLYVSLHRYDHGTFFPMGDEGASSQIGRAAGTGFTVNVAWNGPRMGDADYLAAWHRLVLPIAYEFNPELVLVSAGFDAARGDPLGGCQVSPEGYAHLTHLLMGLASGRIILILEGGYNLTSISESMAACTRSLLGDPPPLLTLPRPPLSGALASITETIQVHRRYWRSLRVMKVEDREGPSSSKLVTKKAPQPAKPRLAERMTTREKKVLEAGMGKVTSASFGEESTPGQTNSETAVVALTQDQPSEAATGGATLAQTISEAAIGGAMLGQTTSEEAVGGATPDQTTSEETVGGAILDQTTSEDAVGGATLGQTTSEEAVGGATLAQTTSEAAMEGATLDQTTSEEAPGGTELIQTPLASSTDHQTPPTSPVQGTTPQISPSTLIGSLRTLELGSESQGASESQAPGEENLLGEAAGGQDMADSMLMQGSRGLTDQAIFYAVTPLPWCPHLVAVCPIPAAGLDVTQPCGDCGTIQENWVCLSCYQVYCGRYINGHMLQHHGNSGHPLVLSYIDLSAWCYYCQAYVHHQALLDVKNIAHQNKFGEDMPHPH

HCT116 = test: MTT assay, survival of human colorectal cancer cells HCT116; type: cell-based; conditions: HCT-116, 48 h, mean ± SD, read-out: Human cell lines HCT116 IC50(μM ± SD)
Method: The effects on cell viability of the HSP90/HDAC6 dual inhibitors as described in Synthesis Examples (such as Compounds 63, 64, and 66 to 76) were evaluated. Cells were seeded in 96-well plates (5000 cells/well). The next day, the serially diluted drugs were added into the wells and incubated at 37° C. for 48 h. Cell viability was measured by the MTT assay and is expressed as percentages of surviving drug-treated cells relative to untreated control cells. The IC50 was calculated by non-linear regression analysis.
The inhibitory effect of the HSP90/HDAC6 dual inhibitors as described in Synthesis Examples on the survival rate of human colorectal cancer cells HCT116 is evaluated using MTT assay.

T1 sequence (O15379 whole entry): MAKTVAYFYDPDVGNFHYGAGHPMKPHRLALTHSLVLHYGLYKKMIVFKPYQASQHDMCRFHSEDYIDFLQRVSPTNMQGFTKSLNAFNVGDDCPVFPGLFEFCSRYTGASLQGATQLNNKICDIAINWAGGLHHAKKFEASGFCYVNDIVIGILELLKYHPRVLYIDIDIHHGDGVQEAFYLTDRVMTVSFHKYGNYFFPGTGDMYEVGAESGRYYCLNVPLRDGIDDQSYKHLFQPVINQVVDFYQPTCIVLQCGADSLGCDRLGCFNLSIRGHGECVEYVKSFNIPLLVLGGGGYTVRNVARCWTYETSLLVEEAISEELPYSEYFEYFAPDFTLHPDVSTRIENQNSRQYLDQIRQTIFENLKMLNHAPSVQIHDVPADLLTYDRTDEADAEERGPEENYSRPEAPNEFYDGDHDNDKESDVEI
T1 sequence (Q9Y618 395-489 partner limits assumed): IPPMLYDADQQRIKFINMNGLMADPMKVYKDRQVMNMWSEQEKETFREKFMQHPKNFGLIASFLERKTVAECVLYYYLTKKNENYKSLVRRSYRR
T3 sequence (Q13547 whole entry): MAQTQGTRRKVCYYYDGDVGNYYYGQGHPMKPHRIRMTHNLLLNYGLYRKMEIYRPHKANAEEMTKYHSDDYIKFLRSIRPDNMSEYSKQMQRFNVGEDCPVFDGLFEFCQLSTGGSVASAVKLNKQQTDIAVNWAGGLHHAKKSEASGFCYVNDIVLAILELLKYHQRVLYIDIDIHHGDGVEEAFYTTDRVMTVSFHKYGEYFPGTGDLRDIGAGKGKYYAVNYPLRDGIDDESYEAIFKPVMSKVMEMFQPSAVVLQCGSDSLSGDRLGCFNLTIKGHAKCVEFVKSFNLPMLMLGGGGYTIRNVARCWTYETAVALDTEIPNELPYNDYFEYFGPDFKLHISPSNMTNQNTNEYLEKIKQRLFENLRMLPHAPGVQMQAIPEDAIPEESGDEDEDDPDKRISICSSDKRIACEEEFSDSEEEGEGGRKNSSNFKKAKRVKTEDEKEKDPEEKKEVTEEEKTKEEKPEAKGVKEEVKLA
T2 sequence (P08238 whole entry): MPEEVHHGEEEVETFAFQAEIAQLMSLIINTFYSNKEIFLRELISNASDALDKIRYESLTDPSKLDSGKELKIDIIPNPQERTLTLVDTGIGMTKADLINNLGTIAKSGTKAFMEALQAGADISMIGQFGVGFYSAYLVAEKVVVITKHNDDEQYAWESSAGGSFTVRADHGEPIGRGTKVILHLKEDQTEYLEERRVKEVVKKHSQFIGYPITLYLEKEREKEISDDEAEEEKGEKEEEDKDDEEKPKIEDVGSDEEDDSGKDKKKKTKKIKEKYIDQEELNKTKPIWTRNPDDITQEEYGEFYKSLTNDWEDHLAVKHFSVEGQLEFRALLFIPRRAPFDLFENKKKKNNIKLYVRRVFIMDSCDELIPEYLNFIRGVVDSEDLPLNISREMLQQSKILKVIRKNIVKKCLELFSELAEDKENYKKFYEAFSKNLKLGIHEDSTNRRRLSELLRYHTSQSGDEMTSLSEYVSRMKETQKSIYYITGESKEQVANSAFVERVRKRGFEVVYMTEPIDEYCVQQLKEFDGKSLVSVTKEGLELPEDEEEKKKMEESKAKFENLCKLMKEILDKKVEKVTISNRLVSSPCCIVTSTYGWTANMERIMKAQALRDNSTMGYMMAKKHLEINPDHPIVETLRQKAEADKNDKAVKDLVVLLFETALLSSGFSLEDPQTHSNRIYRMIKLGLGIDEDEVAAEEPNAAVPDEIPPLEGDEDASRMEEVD

SMILES | IC50 (HDAC3) [nM] | IC50 (HSP90β) [nM] | IC50 (HDAC1) [nM] | IC50 (HSP90α) [nM] | IC50 (HDAC6) [nM] | IC50 (HCT116) [µM]
CC(C)c1cc(C(=O)N(C)Cc2ccc(C(=O)NO)cc2)c(O)cc1O [Compound 63, 2,4-dihydroxy-N-(4-(hydroxycarbamoyl)benzyl)-5-isopropyl-N-methylbenzamide] | 3620 | 38.8 | 1760 | 25.2 | 5.93 | 1.09 ± 0.08
CCN(Cc1ccc(C(=O)NO)cc1)C(=O)c1cc(C(C)C)c(O)cc1O [Compound 64, N-ethyl-2,4-dihydroxy-N-(4-(hydroxycarbamoyl)benzyl)-5-isopropylbenzamide] | > 10000 | 190 | 5230 | 93.9 | 23 | 3.69 ± 0.09
CC(C)c1cc(C(=O)N(Cc2ccc(C(=O)NO)cc2)c2ccccc2)c(O)cc1O [Compound 66, 2,4-dihydroxy-N-(4-(hydroxycarbamoyl)benzyl)-5-isopropyl-N-phenylbenzamide] | 4740 | 200 | 3680 | 54.5 | 23.9 | 0.9 ± 0.09
CC(C)c1cc(C(=O)N(Cc2ccc(C(=O)NO)cc2)c2ccc(F)cc2)c(O)cc1O [Compound 67, N-(4-fluorophenyl)-2,4-dihydroxy-N-(4-(hydroxycarbamoyl)benzyl)-5-isopropylbenzamide] | 3140 | 103 | 1690 | 40.8 | 22.9 | 4.61 ± 0.11
CC(C)c1cc(C(=O)N(Cc2ccc(C(=O)NO)cc2)c2ccc(Cl)cc2)c(O)cc1O [Compound 68, N-(4-chlorophenyl)-2,4-dihydroxy-N-(4-(hydroxycarbamoyl)benzyl)-5-isopropylbenzamide] | 3030 | 159 | 1810 | 59.9 | 17.2 | 5.28 ± 0.92
CC(C)c1cc(C(=O)N(Cc2ccc(C(=O)NO)cc2)c2ccc(I)cc2)c(O)cc1O [Compound 69, 2,4-dihydroxy-N-(4-(hydroxycarbamoyl)benzyl)-N-(4-iodophenyl)-5-isopropylbenzamide] | 2170 | 272 | 1290 | 91.4 | 9.17 | 1.16 ± 0.01
CC(C)c1cc(C(=O)N(Cc2ccc(C(=O)NO)cc2)c2ccc3c(c2)OCO3)c(O)cc1O [Compound 70, N-(benzo[d][1,3]dioxol-5-yl)-2,4-dihydroxy-N-(4-(hydroxycarbamoyl)benzyl)-5-isopropylbenzamide] | 2200 | 95.6 | 1120 | 39.9 | 12.9 | 0.25 ± 0.04
CC(C)c1cc(C(=O)N(Cc2ccc(C(=O)NO)cc2)c2ccc(N3CCOCC3)cc2)c(O)cc1O [Compound 71, 2,4-dihydroxy-N-(4-(hydroxycarbamoyl)benzyl)-5-isopropyl-N-(4-morpholinophenyl)benzamide] | 691 | 18.7 | 275 | 16.3 | 16 | 0.47 ± 0.02
CC(C)c1cc(C(=O)N(Cc2ccc(C(=O)NO)cc2)c2ccc(N(C)C)cc2)c(O)cc1O [Compound 72, N-(4-(dimethylamino)phenyl)-2,4-dihydroxy-N-(4-(hydroxycarbamoyl)benzyl)-5-isopropylbenzamide] | 2190 | 117 | 1070 | 32.2 | 13.7 | 0.9 ± 0.18
CC(C)c1cc(C(=O)N(Cc2ccc(C(=O)NO)cc2)c2ccc(N3CCN(C)CC3)cc2)c(O)cc1O [Compound 73, 2,4-dihydroxy-N-(4-(hydroxycarbamoyl)benzyl)-5-isopropyl-N-(4-(4-methylpiperazin-1-yl)phenyl)benzamide] | 645 | 60.5 | 173 | 36.7 | 5.88 | 1.25 ± 0.13
CC(C)c1cc(C(=O)N(Cc2ccc(C(=O)NO)cc2)c2ccc(N3CCCCC3)cc2)c(O)cc1O [Compound 74, 2,4-dihydroxy-N-(4-(hydroxycarbamoyl)benzyl)-5-isopropyl-N-(4-(piperidin-1-yl)phenyl)benzamide] | 2700 | 373 | 1230 | 98.7 | 70.5 | 4.83 ± 0.47
CC(C)c1cc(C(=O)N(Cc2ccc(C(=O)NO)cc2)c2ccc(O)cc2)c(O)cc1O [Compound 76, 2,4-Dihydroxy-N-(4-hydroxycarbamoyl-benzyl)-N-(4-hydroxy-phenyl)-5-isopropyl-benzamide] | 2840 | 51.8 | 961 | 35 | 6.54 | 0.83 ± 0.01
